From patent publication US8178506B2, “Oligomeric compounds and compositions for use in modulation of small non-coding RNAs” (Regulus Therapeutics Inc., priority 2003, dated 2012)
In the oligonucleotide strings, read from the 5' end, every base follows the letter of its sugar. An asterisk marks phosphorothioate; unmarked linkages are phosphodiester. Other units and linkages are bracketed, terminal groups are in braces. A string of capitals states the bases alone. e = 2'-O-(2-methoxyethyl) (MOE); [5mC] = 5-methylcytosine; d = 2'-deoxy (DNA)

Experiments:
follistatin = assay: Follistatin mRNA expression in HepG2 cells; assay type: cell-based, human; conditions: for Follistatin mRNA expression: Experiment 2, insulin treated: HepG2 cells transfected with oligomeric compound, 1 nM insulin for four hours, UTC + 1 nM insulin = 100
Experimental: (§1) Approximately 28 hours after transfection, the cells are subjected to serum starvation for a period of 12 to 16 hours, using serum-free growth medium. Following serum starvation, cells are treated with 1 nM insulin (insulin-treated) or are left untreated (basal conditions) for approximately four hours. At the same time, untreated control cells in both plates are treated with 100 nM insulin to determine the maximal insulin response. Following insulin treatment (forty-eight hours after transfection), total RNA is harvested from all samples, and the amount of total RNA from each sample is determined using a Ribogreen assay (Invitrogen Corporation, Carlsbad, Calif.). Real-time PCR is performed on the total RNA samples using primer/probe sets for three insulin responsive genes: insulin-like growth factor binding protein-1 (IGFBP-1), cytosolic PEPCK (PEPCK-C), and follistatin. Gene expression levels obtained by real-time PCR are normalized for total RNA content in the samples.
(§2) Oligomeric compounds of the present invention were tested for their effects on insulin signaling in HepG2 cells. HepG2 cells were plated at 7500 cells/well in collagen coated 96-well plates. The following day, cells were transfected with oligomeric compounds targeting miRNAs using 100 nM oligomeric compound in LIPOFECTIN™ (Invitrogen Corporation, Carlsbad, Calif.) in two 96-well plates. The oligomeric compounds were tested in triplicate on each 96-well plate, except for positive and negative controls, which were measured up to six times per plate. At the end of transfection, the transfection medium was replaced by regular growth medium. Twenty-eight hours post-transfection, the cells were subjected to overnight (sixteen to eighteen hours) serum starvation using serum free growth medium. Forty-four hours post-transfection, the cells in the transfected wells were treated with either no insulin (“basal” Experiment 1, for identification of insulin-mimetic compounds) or with 1 nM insulin (“insulin treated” Experiment 2, for identification of insulin sensitizers) for four hours. At the same time, in both plates, cells in some of the un-transfected control wells are treated with 100 nM insulin to determine maximal insulin response. At the end of the insulin or no-insulin treatment (forty-eight hours post-transfection), total RNA is isolated from both the basal and insulin treated (1 nM) 96-well plates, and the amount of total RNA from each sample is determined using a Ribogreen assay (Molecular Probes, Eugene, Oreg.). Real-time PCR is performed on all the total RNA samples using primer/probe sets for three insulin responsive genes: PEPCK-c, IGFBP-1 and follistatin. Expression levels for each gene are normalized to total RNA, and values+standard deviation are expressed relative to the transfectant only untreated control (UTC) and negative control compounds.
(§3) Protocols for treatment of HepG2 cells and transfection of oligomeric compounds are as described in Example 18. Also as described in Example 18, forty-four hours post-transfection, the cells in the transfected wells were treated with either no insulin (“basal” Experiment 3 (below), for identification of insulin-mimetic compounds) or with 1 nM insulin (“insulin treated” Experiment 4 (below), for identification of insulin sensitizers) for four hours. At the same time, in both plates, cells in some of the un-transfected control wells are treated with 100 nM insulin to determine maximal insulin response. At the end of the insulin or no-insulin treatment (forty-eight hours post-transfection), total RNA is isolated from both the basal and insulin treated (1 nM) 96-well plates, and the amount of total RNA from each sample is determined using a Ribogreen assay (Molecular Probes, Eugene, Oreg.).

IGFBP-1 = IGFBP-1 mRNA expression in HepG2 cells; assay type: cell-based, human; conditions: for IGFBP1 mRNA expression: Experiment 2, insulin treated: HepG2 cells transfected with oligomeric compound, 1 nM insulin for four hours, UTC + 1 nM insulin = 100
Experimental: as §1, §2, §3

PEPCK-c = PEPCK-c mRNA expression in HepG2 cells; assay type: cell-based, human; conditions: for PEPCKc mRNA expression: Experiment 2, insulin treated: HepG2 cells transfected with oligomeric compound, 1 nM insulin for four hours, UTC + 1 nM insulin = 100; for reduction of PEPCK-c mRNA expression: HepG2, 1 nM insulin; for reduction of PEPCK-c mRNA expression / decrease in PEPCK-c mRNA: 100 nM; for decrease in PEPCK-c mRNA: HepG2, basal (no insulin)
Experimental: as §1, §2, §3

[1] = tested on: BJ, B16-F10, T47D, T47Dp53 and HeLa cells; assay: Cell cycle assay (propidium iodide flow cytometry), cell line panel; assay type: cell-based; conditions: 150 nM, 72 hours (Table 29)
[2] = Experiment 3, basal (no insulin), HepG2 cells, 48 hours post-transfection
[3] = Experiment 4, insulin-sensitization: HepG2 cells treated with 1 nM insulin for four hours, 48 h post-transfection, mRNA by real-time PCR
[4] = HepG2 cells, Experiment 1, basal (no insulin), four hours, UTC = 100

For “328774 (antisense eG*e[5mC]*eA*e[5mC]*e[5mC]*d[5mC]*dG*d[5mC]*d[5mC]*dT*d[5mC]*dA*d[5mC]*dA*d[5mC]*eA*e[5mC]*eG*eT*eG) [compound 328774]”, the “Follistatin mRNA expression” value (follistatin) was 68, the “IGFBP1 mRNA expression” value (IGFBP-1) was 100 and the “PEPCKc mRNA expression” value (PEPCK-c) was 77.

“328776 (antisense eT*e[5mC]*e[5mC]*eT*eG*dT*dA*dA*dT*dT*dA*dT*dA*dG*dG*e[5mC]*eT*eA*eG*e[5mC]) [compound 328776]” was tested, and the “Follistatin mRNA expression” value (follistatin) was 114, the “IGFBP1 mRNA expression” value (IGFBP-1) was 86 and the “PEPCKc mRNA expression” value (PEPCK-c) was 125.

With “328779 (antisense eT*eG*eT*eT*eT*dG*dT*d[5mC]*dT*d[5mC]*d[5mC]*dA*dA*dG*dA*eA*eA*e[5mC]*eG*eT) [compound 328779]” the “Follistatin (% UTC)” value (follistatin; [2]) was 109 % UTC, the “Follistatin (% UTC)” value (follistatin; [3]) was 119 % UTC and the “IGFBP-1 (% UTC)” value (IGFBP-1; [2]) was 135 % UTC. For the same substance, the “IGFBP-1 (% UTC)” value (IGFBP-1; [3]) was 128 % UTC, the “PEPCK-c (% UTC)” value (PEPCK-c; [2]) was 123 % UTC and the “PEPCK-c (% UTC)” value (PEPCK-c; [3]) was 78 % UTC.

With “340362 (antisense GACTGTTGAATCTCATGGCA; 5-10-5 gapmer, wing sugar and linkages not given here, further chemistry not given here) [compound 340362]” the “Follistatin (% UTC)” value (follistatin; [2]) was 123 % UTC, the “Follistatin (% UTC)” value (follistatin; [3]) was 119 % UTC and the “IGFBP-1 (% UTC)” value (IGFBP-1; [2]) was 157 % UTC. For the same substance, the “IGFBP-1 (% UTC)” value (IGFBP-1; [3]) was 129 % UTC, the “PEPCK-c (% UTC)” value (PEPCK-c; [2]) was 168 % UTC and the “PEPCK-c (% UTC)” value (PEPCK-c; [3]) was 104 % UTC.

With “341808 (antisense GAACUGCCUUUCUCUCCA; all 2'-MOE, all phosphorothioate, methylation of C and T or U not given here) [compound 341808]” the “Follistatin mRNA” value (follistatin; [4]) was 96, the “IGFBP1 mRNA” value (IGFBP-1; [4]) was 113 and the “PEPCKc mRNA” value (PEPCK-c; [4]) was 64.

In the case of “341813 (antisense AGACACGTGCACTGTAGA; all 2'-MOE, all phosphorothioate, methylation of C not given here) [compound 341813]”, the “Follistatin (% UTC)” value (follistatin; [2]) is reported as 100 % UTC, the “Follistatin (% UTC)” value (follistatin; [3]) is reported as 102 % UTC and the “IGFBP-1 (% UTC)” value (IGFBP-1; [2]) is reported as 137 % UTC. For the same substance, the “IGFBP-1 (% UTC)” value (IGFBP-1; [3]) was 117 % UTC, the “PEPCK-c (% UTC)” value (PEPCK-c; [2]) was 121 % UTC and the “PEPCK-c (% UTC)” value (PEPCK-c; [3]) was 88 % UTC.

For “AGAAGGTGGGGAGCAGCGTCA (anti-miR; chemistry not fully specified) [ISIS 328115, uniform 2′-MOE PS; targets hypothetical miRNA-142]”, the “reduction of PEPCK-c mRNA expression” value (PEPCK-c) was 41%.

With “GCTACCTGCACTGTAAGCACTTTT (chemistry not given here) [ISIS 327911, uniform 2′-MOE PS; targets mir-106]” the “percentage of cells in the G2/M phase” value [1] was “increased percentage of cells in the G2/M phase” and the “decrease in PEPCK-c mRNA” value (PEPCK-c) was 48%.

In the case of “ISIS 341804: SEQ ID NO: 761, targeting mir-94/mir-106b (antisense ATCTGCACTGTCAGCACTTT; all 2'-MOE, all phosphorothioate, methylation of C not given here)”, the “decrease in PEPCK-c mRNA” value (PEPCK-c) is reported as 56%.

For “ISIS 341805: SEQ ID NO: 762, targeting mir-184 (antisense ACCCTTATCAGTTCTCCGTCCA; all 2'-MOE, all phosphorothioate, methylation of C not given here)”, the “decrease in PEPCK-c mRNA” value (PEPCK-c) was 60%.

In the case of “TCAGTTTTGCATGGATTTGCACA (anti-miR; chemistry not fully specified) [ISIS 327922, uniform 2′-MOE PS; targets mir-19b-2]”, the “reduction of PEPCK-c mRNA expression” value (PEPCK-c) is reported as 24% and the “decrease in PEPCK-c mRNA” value (PEPCK-c) is reported as 23%.
